Assay results taken from patent publication US9200001B2, “Triazolyl PDE10 inhibitors” (Merck Sharp & Dohme Corp., priority 2011, dated 2015).

target: human PDE10A2 (Homo sapiens (Human), UniProt Q9Y233); assay: PDE10 fluorescence polarization (IMAP FP) inhibition assay; assay type: biochemical; settings: FAM-labeled cAMP 50 nM, room temperature, read-out: PDE10a Ki
Method: The activity of the compounds in accordance with the present invention as PDE10 inhibitors may be readily determined without undue experimentation using a fluorescence polarization (FP) methodology that is well known in the art (Huang, W., et al., J. Biomol Screen, 2002, 7: 215).
In a typical experiment the PDE10 inhibitory activity of the compounds of the present invention was determined in accordance with the following experimental method. PDE10A2 was amplified from human fetal brain cDNA (Clontech, Mountain View, Calif.) using a forward primer corresponding to nucleotides 56-77 of human PDE10A2 (Accession No. AF127480, Genbank Identifier 4894716), containing a Kozak consensus sequence, and a reverse primer corresponding to nucleotides 2406-2413 of human PDE10A2 (Accession No. AF127480, Genbank Identifier 4894716). Amplification with Easy-A polymerase (Stratagene, La Jolla, Calif.) was 95° C. for 2 minutes followed by thirty three cycles of 95° C. for 40 seconds, 55° C. for 30 seconds, and 72° C. for 2 minutes 48 seconds. Final extension was 72° C. for 7 minutes. The PCR product was TA cloned into pcDNA3.2-TOPO (Invitrogen, Carlsbad, Calif.) according to standard protocol. AD293 cells with 70-80% confluency were transiently transfected with human PDE10A2/pcDNA3.2-TOPO using Lipofectamine 2000 according to manufacturer specifications (Invitrogen, Carlsbad, Calif.). Cells were harvested 48 hours post-transfection and lysed by sonication (setting 3, 10×5 sec pulses) in a buffer containing 20 mM HEPES, 1 mM EDTA and protease inhibitor cocktail (Roche). Lysate was collected by centrifugation at 75,000×g for 20 minutes. Supernatant containing the cytoplasmic fraction was used for evaluation of PDE10A2 activity. The fluorescence polarization assay for cyclic nucleotide phosphodiesterases was performed using an IMAP® FP kit supplied by Molecular Devices, Sunnyvale, Calif. (product # R8139). IMAP® technology has been applied previously to phosphodiesterase assays (Huang, W., et al., J. Biomol Screen, 2002, 7: 215). Assays were performed at room temperature in 384-well microtiter plates with an incubation volume of 20.2 μL. Solutions of test compounds were prepared in DMSO and serially diluted with DMSO to yield 8 μL of each of 10 solutions differing by 3-fold in concentration, at 32 serial dilutions per plate. 100% inhibition is determined using a known PDE10 inhibitor, which can be any compound that is present at 5,000 times its Ki value in the assay described as follows, such as papaverine (see Siuciak, et al. Neuropharmacology (2006) 51:386-396; Becker, et al. Behav Brain Res (2008) 186(2):155-60; Threlfell, et al., J Pharmacol Exp Ther (2009) 328(3):785-795), 2-{4-[pyridin-4-yl-1-(2,2,2-trifluoroethyl)-1H-pyrazol-3-yl]phenoxymethyl}quinoline succinic acid or 2-[4-(1-methyl-4-pyridin-4-yl-1H-pyrazol-3-yl)-phenoxymethyl]quinoline succinic acid (see Schmidt, et al. J Pharmacol Exp Ther (2008) 325:681-690; Threlfall, et al., J Pharmacol Exp Ther (2009) 328(3): 785-795). 0% of inhibition is determined by using DMSO (1% final concentrations).
A Labcyte Echo 555 (Labcyte, Sunnyvale, Calif.) is used to dispense 200 nL from each well of the titration plate to the 384 well assay plate. A solution of enzyme (1/1600 dilution from aliquots; sufficient to produce 20% substrate conversion) and a separate solution of FAM-labeled cAMP PDE from Molecular Devices (product # R7506), at a final concentration of 50 nM are made in the assay buffer (10 mM Tris HCl, pH 7.2, 10 mM MgCl2, 0.05% NaN3 0.01% Tween-20, and 1 mM DTT). The enzyme and the substrate are then added to the assay plates in two consecutive additions of 10 μL, and then shaken to mix. The reaction is allowed to proceed at room temperature for 30 minutes. A binding solution is then made from the kit components, comprised of 80% Solution A, 20% Solution B and binding reagent at a volume of 1600 the total binding solution. […]

Chain of human PDE10A2 (Q9Y233 267-1055): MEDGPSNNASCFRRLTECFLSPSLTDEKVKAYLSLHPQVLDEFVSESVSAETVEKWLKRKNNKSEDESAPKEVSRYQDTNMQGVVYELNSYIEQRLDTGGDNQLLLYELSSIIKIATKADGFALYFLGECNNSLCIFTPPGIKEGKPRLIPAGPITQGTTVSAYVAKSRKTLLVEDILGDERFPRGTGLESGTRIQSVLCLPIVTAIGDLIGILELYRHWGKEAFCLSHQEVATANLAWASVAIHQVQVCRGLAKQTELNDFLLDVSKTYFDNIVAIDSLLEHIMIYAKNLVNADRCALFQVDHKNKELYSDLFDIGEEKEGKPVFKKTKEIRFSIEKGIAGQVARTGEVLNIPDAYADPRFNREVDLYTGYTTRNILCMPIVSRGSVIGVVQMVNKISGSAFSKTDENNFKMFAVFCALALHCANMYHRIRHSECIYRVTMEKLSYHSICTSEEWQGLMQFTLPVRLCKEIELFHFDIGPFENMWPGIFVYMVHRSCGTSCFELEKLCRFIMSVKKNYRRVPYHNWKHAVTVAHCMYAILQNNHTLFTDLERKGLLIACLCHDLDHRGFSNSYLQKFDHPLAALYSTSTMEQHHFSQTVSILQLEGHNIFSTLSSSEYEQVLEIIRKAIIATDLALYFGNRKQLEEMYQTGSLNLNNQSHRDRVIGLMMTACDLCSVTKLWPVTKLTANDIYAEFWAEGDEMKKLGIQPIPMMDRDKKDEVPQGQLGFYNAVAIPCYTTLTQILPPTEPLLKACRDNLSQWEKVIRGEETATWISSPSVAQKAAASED

Ki [nM]	SMILES
13.1	Cc1nc([C@@H]2C[C@H]2c2nc3ccccc3n2Cc2ccccn2)cc(-n2nc(C)nc2C)n1 (stereo in doubt) [Cpd 73, 2-{2-[6-(3,5-dimethyl-1H-1,2,4-triazol-1-yl)-2-methylpyrimidin-4-yl]cyclopropyl}-1-(pyridin-2-ylmethyl)-1H-benzimidazole]
9.9	Cc1nc([C@@H]2C[C@H]2c2nc3ccccc3n2Cc2cccnc2)cc(-n2nc(C)nc2C)n1 (stereo in doubt) [Cpd 74, 2-{2-[6-(3,5-dimethyl-1H-1,2,4-triazol-1-yl)-2-methylpyrimidin-4-yl]cyclopropyl}-1-(pyridin-3-ylmethyl)-1H-benzimidazole]
13	Cc1nc([C@@H]2C[C@H]2c2nc3ccccc3n2CC2CCCO2)cc(-n2nc(C)nc2C)n1 (stereo in doubt) [Cpd 75, 2-{2-[6-(3,5-dimethyl-1H-1,2,4-triazol-1-yl)-2-methylpyrimidin-4-yl]cyclopropyl}-1-(tetrahydrofuran-2-ylmethyl)-1H-benzimidazole]
18.3	Cc1nc([C@@H]2C[C@H]2c2nc3ccccc3n2Cc2ccncc2)cc(-n2nc(C)nc2C)n1 (stereo in doubt) [Cpd 76, 2-{2-[6-(3,5-dimethyl-1H-1,2,4-triazol-1-yl)-2-methylpyrimidin-4-yl]cyclopropyl}-1-(pyridin-4-ylmethyl)-1H-benzimidazole]
> 75	Cc1nc([C@H]2C[C@@H]2c2nc3ccccc3n2C)cc(-n2nc(C)nc2O)n1 (stereo in doubt) [Cpd 78, 3-methyl-1-{2-methyl-6-[2-(1-methyl-1H-benzimidazol-2-yl)cyclopropyl]pyrimidin-4-yl}-1H-1,2,4-triazol-5-ol]
2.5	Cc1nc([C@H]2C[C@@H]2c2nc3ccccc3n2C)cc(-n2nc(C)nc2C2CCCCC2)n1 (stereo in doubt) [Cpd 79, 2-{2-[6-(5-cyclohexyl-3-methyl-1H-1,2,4-triazol-1-yl)-2-methylpyrimidin-4-yl]cyclopropyl}-1-methyl-1H-benzimidazole]
> 75	Cc1nc([C@H]2C[C@@H]2c2nc3ncccc3n2C)cc(-n2nc(C)nc2C)n1 (stereo in doubt) [Cpd 80, 2-{2-[6-(3,5-dimethyl-1H-1,2,4-triazol-1-yl)-2-methylpyrimidin-4-yl]cyclopropyl}-1-methyl-1H-imidazo[4,5-b]pyridine]
12.8	Cc1nc([C@H]2C[C@@H]2c2nc3ccccc3n2C)cc(-n2nc(C)nc2-c2cccnc2)n1 (stereo in doubt) [Cpd 81, 1-methyl-2-{2-[2-methyl-6-(3-methyl-5-pyridin-3-yl-1H-1,2,4-triazol-1-yl)pyrimidin-4-yl]cyclopropyl}-1H-benzimidazole]
> 75	Cc1nc([C@H]2C[C@@H]2c2nc3ccccc3n2C)cc(-n2nc(C)nc2-c2ccccn2)n1 (stereo in doubt) [Cpd 82, 1-methyl-2-{2-[2-methyl-6-(3-methyl-5-pyridin-2-yl-1H-1,2,4-triazol-1-yl)pyrimidin-4-yl]cyclopropyl}-1H-benzimidazole]
0.96	CCc1nc(C)nn1-c1cc([C@H]2C[C@@H]2c2nc3ccccc3n2C)nc(C)n1 (stereo in doubt) [Cpd 83, 2-{2-[6-(5-ethyl-3-methyl-1H-1,2,4-triazol-1-yl)-2-methylpyrimidin-4-yl]cyclopropyl}-1-methyl-1H-benzimidazole]
> 75	Cc1nc([C@H]2C[C@@H]2c2nc3ccccc3n2C)cc(-n2nc(C)nc2C2CCN(C(=O)OC(C)(C)C)CC2)n1 (stereo in doubt) [Cpd 84, tert-butyl 4-(3-methyl-1-{2-methyl-6-[2-(1-methyl-1H-benzimidazol-2-yl)cyclopropyl]pyrimidin-4-yl}-1H-1,2,4-triazol-5-yl)piperidine-1-carboxylate]
2.9	Cc1nc([C@H]2C[C@@H]2c2nc3ccccc3n2C)cc(-n2nc(C)nc2C2CC2)n1 (stereo in doubt) [Cpd 85, 2-{2-[6-(5-cyclopropyl-3-methyl-1H-1,2,4-triazol-1-yl)-2-methylpyrimidin-4-yl]cyclopropyl}-1-methyl-1H-benzimidazole]
1.4	COCc1nc(C)nn1-c1cc([C@H]2C[C@@H]2c2nc3ccccc3n2C)nc(C)n1 (stereo in doubt) [Cpd 86, 2-[2-{6-[5-(methoxymethyl)-3-methyl-1H-1,2,4-triazol-1-yl]-2-methylpyrimidin-4-yl}cyclopropyl]-1-methyl-1H-benzimidazole]
10.6	Cc1nc([C@H]2C[C@@H]2c2nc3ccccc3n2C)cc(-n2nc(C)nc2CN(C)C)n1 (stereo in doubt) [Cpd 87, N,N-dimethyl-1-(3-methyl-1-{2-methyl-6-[2-(1-methyl-1H-benzimidazol-2-yl)cyclopropyl]pyrimidin-4-yl}-1H-1,2,4-triazol-5-yl)methanamine]
0.023	COc1ccc(Cc2nc(C)nn2-c2cc(C#Cc3ccc4ccccc4n3)nc(C)n2)cc1OC [Cpd 2, 2-((6-(5-(3,4-dimethoxybenzyl)-3-methyl-1H-1,2,4-triazol-1-yl)-2-methylpyrimidin-4-yl)ethynyl)quinoline]
0.004	COc1ccc(Cc2nc(C)nn2-c2cc(CCc3ccc4ccccc4n3)nc(C)n2)cc1OC [Cpd 3, 2-(2-(6-(5-(3,4-dimethoxybenzyl)-3-methyl-1H-1,2,4-triazol-1-yl)-2-methylpyrimidin-4-yl)ethyl)quinoline]
0.14	COc1ccc(Cc2nc(C)nn2-c2cc(CCc3ccc(C)cn3)nc(C)n2)cc1OC [Cpd 5, 4-(5-(3,4-dimethoxybenzyl)-3-methyl-1H-1,2,4-triazol-1-yl)-2-methyl-6-(2-(5-methylpyridin-2-yl)ethyl)pyrimidine]
0.073	COc1ccc(Cc2nc(C)nn2-c2cc(C#Cc3ccc4ccccc4n3)nc(C)n2)nc1OC [Cpd 7, 2-((6-(5-((5,6-dimethoxypyridin-2-yl)methyl)-3-methyl-1H-1,2,4-triazol-1-yl)-2-methylpyrimidin-4-yl)ethynyl)quinoline]
0.028	COc1ccc(Cc2nc(C)nn2-c2cc(CCc3ccc4ccccc4n3)nc(C)n2)nc1OC [Cpd 8, 2-(2-(6-(5-((5,6-dimethoxypyridin-2-yl)methyl)-3-methyl-1H-1,2,4-triazol-1-yl)-2-methylpyrimidin-4-yl)ethyl)quinoline]
62	Cc1nc(OCc2ccc3ccccc3n2)cc(-n2nc(C)nc2Cc2nc(C)sc2C)n1 [Cpd 9, 2,5-dimethyl-4-((3-methyl-1-(2-methyl-6-(quinolin-2-ylmethoxy)pyrimidin-4-yl)-1H-1,2,4-triazol-5-yl)methyl)thiazole]
0.01	COc1ccc(Cc2nc(C)nn2-c2cc(/C=C/c3ccc4ncccc4n3)nc(C)n2)cc1OC [Cpd 13, (E)-2-(2-(6-(5-(3,4-dimethoxybenzyl)-3-methyl-1H-1,2,4-triazol-1-yl)-2-methylpyrimidin-4-yl)vinyl)-1,5-naphthyridine]
0.82	COc1ccc(Cc2nc(C)nn2-c2cc(C#Cc3ccc4ncccc4n3)nc(C)n2)cc1OC [Cpd 14, 2-((6-(5-(3,4-dimethoxybenzyl)-3-methyl-1H-1,2,4-triazol-1-yl)-2-methylpyrimidin-4-yl)ethynyl)-1,5-naphthyridine]
0.056	COc1ncc(Cc2nc(C)nn2-c2cc(CCc3ccc4ccccc4n3)nc(C)n2)nc1OC [Cpd 15, 2-(2-(6-(5-((5,6-dimethoxypyrazin-2-yl)methyl)-3-methyl-1H-1,2,4-triazol-1-yl)-2-methylpyrimidin-4-yl)ethyl)quinoline]
